Source: patent publication US8256433B2 (priority 1999, dated 2012)

Details: pH 3

With `CN1CCCC1c1cccnc1.O=C(O)C(O)C(O)C(=O)O` (stereo not shown) [Nicotine Bitartrate, nicotine bitartrate] the “loss of nicotine into the polymeric dosage form materials, comparison of salts” value was “better”.
